Laboratory results as given in PubChem BioAssay (NCI).
“And” between values parts separate entries of the source, which are not always exact repeats. Equal values may be shown once.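 Test compounds were applied to cells in 96-well plates for 48 hours at 5 doses. Abbreviation: GI50, concentration required for 50% inhibition of growth. TGI marks complete inhibition of growth.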

Tests used:
Assay in all cases: DTP human tumour cell line panel, 48 h
[1] = tested on: NCI-H23 lung
[2] = tested on: SK-MEL-5 melanoma
[3] = tested on: OVCAR-4 ovarian
[4] = tested on: RXF 393 renal
[5] = tested on: NCI-H460 lung
[6] = tested on: U251 CNS
[7] = tested on: SF-539 CNS
[8] = tested on: SR leukemia
[9] = tested on: M14 melanoma

Row | Structure (SMILES) | TGI [1] | TGI [2] | TGI [3] | TGI [4] | TGI [5] | TGI [6] | TGI [7] | TGI [8] | TGI [9] | GI50 [1] | GI50 [2] | GI50 [3] | GI50 [5] | GI50 [6] | GI50 [7] | GI50 [9] | GI50 [4] | GI50 [8]
1 | COC1CC(OC)C(O)C(CO)O1 (centres undefined) | > 100 µM | > 100 µM | > 100 µM | > 100 µM | > 100 µM | > 100 µM | > 100 µM | > 100 µM | > 100 µM | – | – | – | – | – | – | – | – | –
2 | C#Cc1cc(CN(CC(=O)OC(C)(C)C)CC(=O)OC(C)(C)C)nc(CN(CC(=O)OC(C)(C)C)CC(=O)OC(C)(C)C)c1 | 26.3 µM | 11.3 µM | 37.9 µM | 14.2 µM | > 100 µM | 27.8 µM | 32.9 µM | – | 28.6 µM | – | – | – | – | – | – | – | – | –
3 | COC(=O)[C@@]12C=CC(=O)[C@H]3C[C@@H](C(C(C)C)C1)[C@]32OC (some centres undefined) | > 100 µM | > 100 µM | > 100 µM | > 100 µM | > 100 µM | > 100 µM | > 100 µM | – | > 100 µM | – | – | – | – | – | – | – | – | –
4 | COC(C)(C)[C@H](O)C(O)CC(C)[C@@H]1CCC23CC12CCC1[C@@]2(C)CCC(OC(C)=O)C(C)(C)C2CC(OC2OC(COC(C)=O)C(O)C(O)C2O)[C@]13C (some centres undefined) | 16 µM and 25.2 µM | 12.8 µM and 23.3 µM | 13.1 µM and 21.3 µM | 11.8 µM | 10.3 µM and 14.7 µM | 9.64 µM and 17.7 µM | 9.41 µM and 17.2 µM | – | 9.78 µM and 14.2 µM | 11.3 µM | 10.2 µM | 7.01 µM | 4.69 µM | 5.3 µM | 5.66 µM | 3.58 µM | – | –
5 | CCOC(=O)c1cc(OC(=O)CC)c2c(OC)ccc(OC)c2c1 | > 100 µM | > 100 µM | > 100 µM | 69.7 µM | > 100 µM | > 100 µM | > 100 µM | > 100 µM | – | – | – | – | – | – | – | – | – | –
6 | FC(F)(F)c1nc(-c2ccccc2)oc1Sc1oc(-c2ccccc2)nc1C(F)(F)F | > 100 µM | > 100 µM | 90.2 µM | > 100 µM | > 100 µM | > 100 µM | > 100 µM | > 100 µM | > 100 µM | – | – | – | – | – | – | – | – | –
7 | Cc1ccc(NC(=O)CC2C(=O)Nc3ccccc3S2=O)c(C)c1 (centres undefined) | 32.8 µM | 38.1 µM | 41.6 µM | 24.1 µM | > 64.3 µM | 27 µM | 26.3 µM | 7.54 µM | 46.7 µM | – | – | – | – | – | – | – | – | –
8 | COc1ccc(C2C3=C(COC3=O)Oc3cc4c(cc32)OCO4)cc1 (centres undefined) | > 100 µM | > 100 µM | > 100 µM | > 100 µM | > 100 µM | > 100 µM | 56.6 µM | – | > 100 µM | – | – | – | – | – | – | – | – | –
9 | Cn1nc2ccccc2cc1=O | > 100 µM | > 100 µM | > 100 µM | – | > 100 µM | > 100 µM | > 100 µM | – | > 100 µM | – | – | – | – | – | – | – | – | –
10 | CCCCCCCCCCCCC(CCCCCCCCCCCC)OP(=O)(O)O | > 100 µM | > 100 µM | > 100 µM | > 100 µM | > 100 µM | > 100 µM | > 100 µM | > 100 µM | > 100 µM | – | – | – | – | – | – | – | – | –
11 | COC(=O)C1=C(C)N(NC(N)=O)C(C)(O)C12CCOC2=O (centres undefined) | > 100 µM | – | > 100 µM | – | > 100 µM | > 100 µM | > 100 µM | – | > 100 µM | – | – | – | – | – | – | – | – | –
12 | C=C[C@H]1C=Cc2c(OC)cccc2[C@@H]1COP1(=S)NC(C)C(c2ccccc2)O1 (some centres undefined) | > 100 µM | > 100 µM | > 100 µM | > 100 µM | > 100 µM | > 100 µM | > 100 µM | – | > 100 µM | – | – | – | – | – | – | – | – | –
13 | C=C1C(=O)O[C@H]2[C@H]1CC/C(COC(=O)NCc1cc(OC)cc(OC)c1)=C\CC[C@@]1(C)O[C@@H]21 | 4.32 µM | 12.2 µM | 5.24 µM | 2.07 µM | 11.6 µM | 11.1 µM | 3.02 µM | 2.91 µM | 3.87 µM | 1.84 µM | 3.48 µM | 1.7 µM | 3.01 µM | 3.16 µM | 1.54 µM | 1.64 µM | 0.687 µM | 0.32 µM
14 | O=C(C=Nc1ccccc1C(=O)[O-])c1cccs1.O=C(C=Nc1ccccc1C(=O)[O-])c1cccs1.[Zn+2] | > 100 µM | – | – | – | > 100 µM | 35.5 µM | > 100 µM | > 100 µM | > 100 µM | – | – | – | – | – | – | – | – | –
15 | c1ccc2c(c1)[nH]c1c2ncc2[nH]c3ccccc3c21 | 33.5 µM | 17.2 µM | 3.79 µM | – | 5.44 µM | 5.64 µM | 7.21 µM | – | 7.99 µM | – | – | – | – | – | – | – | – | –
16 | CC(C)c1cccc(C(C)C)c1NC(=O)CCC(=O)NN | > 100 µM | > 100 µM | > 100 µM | – | > 100 µM | > 100 µM | > 100 µM | – | > 100 µM | – | – | – | – | – | – | – | – | –

Row | Structure (SMILES) | TGI [1] | TGI [2] | TGI [3] | TGI [4] | TGI [5] | TGI [6] | TGI [7] | TGI [8] | TGI [9] | GI50 [1] | GI50 [2] | GI50 [3] | GI50 [5] | GI50 [6] | GI50 [7] | GI50 [9] | GI50 [4] | GI50 [8]
17 | Cc1ccccc1NC(=O)c1ccc([N+](=O)[O-])cc1 | > 100 µM | > 100 µM | > 100 µM | > 100 µM | > 100 µM | > 100 µM | > 100 µM | – | > 100 µM | – | – | – | – | – | – | – | – | –
18 | COC(=O)C(=O)C(C(=O)OC)C(=O)C(=O)Nc1cc(Cl)c(Cl)cc1Cl (centres undefined) | > 100 µM | > 100 µM | > 100 µM | > 100 µM | > 100 µM | > 100 µM | > 100 µM | 56.7 µM | > 100 µM | – | – | – | – | – | – | – | – | –
19 | CCOC(=O)NC1CC2CCC1(OC)C=C2C (centres undefined) | > 100 µM | > 100 µM | > 100 µM | > 100 µM | > 100 µM | > 100 µM | > 100 µM | > 100 µM | > 100 µM | – | – | – | – | – | – | – | – | –
20 | C[CH2][Sn]([CH2]C)([O]C(=O)c1ccc(F)cc1)[O][Sn]([CH2]C)([CH2]C)[O]C(=O)c1ccc(F)cc1 | > 100 µM | > 100 µM | > 100 µM | 29.9 µM | > 100 µM | > 100 µM | > 100 µM | > 100 µM | > 100 µM | 41 µM | > 100 µM | > 100 µM | > 100 µM | 29.8 µM | 67.5 µM | > 100 µM | 15.7 µM | 41.1 µM
21 | CCCN1C(=O)CNC(=O)c2[nH]cnc21 | > 100 µM | > 100 µM | – | > 100 µM | > 100 µM | > 100 µM | > 100 µM | > 100 µM | > 100 µM | – | – | – | – | – | – | – | – | –
22 | O=NN(CCCl)C(=O)N[C@H]1CCCC[C@@H]1Cl | > 100 µM | > 100 µM | > 100 µM | > 100 µM | > 100 µM | > 100 µM | > 100 µM | 17 µM | > 100 µM | – | – | – | – | – | – | – | – | –
23 | Cc1ccc(N2C(=O)C(Cl)=C(Cl)C2=O)cc1 | 41.3 µM | > 100 µM | 34.4 µM | 25.4 µM | > 100 µM | > 100 µM | 64.2 µM | 54.2 µM | 36.7 µM | – | – | – | – | – | – | – | – | –
24 | COC(=O)Cc1cc(=O)n2c([nH]c3ccccc32)c1C#N | > 100 µM | > 100 µM | > 100 µM | > 100 µM | > 100 µM | > 100 µM | > 100 µM | > 100 µM | > 100 µM | – | – | – | – | – | – | – | – | –
25 | Nc1ccccc1C#Cc1ccccc1C#Cc1cnccn1 | 30.5 µM | 18 µM | 72.3 µM | > 100 µM | 20.5 µM | 32 µM | 31.6 µM | – | 29.5 µM | 16.8 µM | 4.6 µM | 20.6 µM | 7.87 µM | 17.7 µM | 17.1 µM | 16 µM | 85.4 µM | –
26 | Cc1c(CC/C(=N\Nc2ccc([N+](=O)[O-])cc2[N+](=O)[O-])c2ccccc2)c2ccccc2n1C | > 100 µM | > 100 µM | > 100 µM | > 83.6 µM | > 100 µM | > 100 µM | > 100 µM | – | > 100 µM | – | – | – | – | – | – | – | – | –
27 | COc1cc(Nc2nc3cc(C(F)(F)F)ccc3nc2C)cc(OC)c1OC | 23.2 µM | 25.2 µM | 34 µM | 17.9 µM | 17.7 µM | 22.4 µM | 25.4 µM | 30.3 µM | 21.3 µM | – | – | – | – | – | – | – | – | –
28 | O=C(NCCCCCCNC(=O)OCc1ccc2c(Cl)cc(Cl)c(O)c2n1)OCc1ccc2c(Cl)cc(Cl)c(O)c2n1 | 3.06 µM | 2.88 µM | 2.04 µM | 1.57 µM | 3.12 µM | 2.92 µM | 1.63 µM | – | 2.32 µM | 1.42 µM | 1.54 µM | 0.707 µM | 1.23 µM | 1.44 µM | 0.468 µM | 0.893 µM | 0.478 µM | 0.357 µM
29 | O=C(O)[C@@H](NS(=O)(=O)c1ccc([N+](=O)[O-])cc1)c1ccccc1 | > 100 µM | > 100 µM | > 100 µM | > 100 µM | > 100 µM | > 100 µM | > 100 µM | – | > 100 µM | – | – | – | – | – | – | – | – | –
30 | O=C(Cc1ccccc1)NS(=O)(=O)c1ccccc1 | > 100 µM | – | > 100 µM | > 100 µM | > 100 µM | > 100 µM | > 100 µM | > 100 µM | > 100 µM | – | – | – | – | – | – | – | – | –
31 | c1ccc2c(CNCCCCCCCCCCCCNCc3cccc4ccccc34)cccc2c1 | 2.89 µM | 3.27 µM | 3.05 µM | 2.66 µM | 2.95 µM | 3.17 µM | 3 µM | 2.69 µM | 3.29 µM | – | – | – | – | – | – | – | – | –
32 | COc1ccccc1NC(=O)C(CC(C(=O)Nc1ccccc1OC)/C(C)=N/NC(=O)c1ccccc1O)/C(C)=N/NC(=O)c1ccccc1O (centres undefined) | > 100 µM | > 100 µM | > 100 µM | > 100 µM | > 100 µM | > 100 µM | > 100 µM | – | > 100 µM | – | – | – | – | – | – | – | – | –
